The values below come from patent US20230247992A1, “ARTHROPOD CONTROL COMPOSITION” (Firmenich SA, priority 2020, published 2023).

The test system of test [1] is Aedes aegypti. Nature of the test: in vitro Warm Body assay, substance applied on glass Petri dish on top of the warm body (deterrence and repellence). The format is in vivo.
Test [2] relates to Aedes aegypti. Nature of the test: in vitro Warm Body assay, substance introduced in the cage air by forced evaporation (spatial repellence). The format is in vivo.
The subject of test [3] is Aedes aegypti. The test can be described thus: in vivo Arm-in-cage assay on human volunteers. Particulars: for decrease of the percentage of mosquito landing on the arm: 20% applied on arm skin (600 cm^2), three volunteers. As for the experimental part: The controlling effect, repellence & spatial repellence, according to the present invention is also determined according to an arm in the box method adapted from the WHO Guidelines for efficacy testing of mosquito repellents for human skin (WHO/CDS/NTD/WHOPES/2009.4). […] Further information is provided in the accompanying examples.
The Arm in the box method was adapted from the WHO Guidelines for efficacy testing of mosquito repellents for human skin (WHO/CDS/NTD/WHOPES/2009.4). The readiness of 100 hungry female mosquitoes A. aegypti to probe is assessed by inserting an untreated arm into the cage (40×40×40 cm) for 30 seconds (negative control) three times (once at the beginning, once at the fourth hour and once at the eighth hour), to determine probing activity. Then, the product is applied onto the skin of the forearm of a human volunteer (1 mL per 600 cm^2) and after 5 minutes, this arm is inserted into the cage and exposed for 3 minutes. The assay take place in temperature (27±2° C.) and humidity (80±10%RH) regulated room on three different volunteers.
Arm-in-cage test is a compulsory assay for most biocide registrations to assess the efficacy of a substance. It is a very challenging test as the treated arm of a volunteer is being placed in a space containing a density of […] blood hungry mosquitoes / m^3 of air.

Test [4] has as its system Ixodes ricinus. The test can be described thus: whole plant or invertebrate. The format is in vivo. Conditions: Ixodes ricinus, read-out: mean percentage of ticks affected.

`CCCCCC1CCCC(=O)O1` (stereo not shown) [6-pentyloxan-2-one]: the “number of mosquitoes landing within 2 minutes on the warm body” value in test [1] (0.04% in ethanol, ethanol control 67.0±8.8 landings) turned out to be 7.0; in test [1] (1% in ethanol, ethanol control 67.0±8.8 landings) it was 2.0; in test [1] ([…] in ethanol, ethanol control 67.0±8.8 landings), 90.0. Also, the “number of mosquitoes landing within 2 minutes on the warm body, air in the cage saturated with stimulus” value came out at 43.0 in test [2] (0.0017 µg/L air, without substance 54.1±4.9); 4.0 in test [2] (0.017 µg/L air, without substance 54.1±4.9); 28.0 in test [2] (0.17 µg/L air, without substance 54.1±4.9); 0.5 in test [2] (1.7 µg/L air, without substance 54.1±4.9); 0.0 in test [2] (17 µg/L air, without substance 54.1±4.9). Further, in test [3] (maintained for more than 4h (FIG. 3)), the “repellence in the arm-in-cage test” value is “above 75%”.
Turning to `COc1cc(C=O)ccc1O` [4-hydroxy-3-methoxybenzaldehyde], the “number of mosquitoes landing within 2 minutes on the warm body” value in test [1] (0.04% in ethanol, ethanol control 59.3±6.9 landings) worked out at 9.0; in test [1] (1% in ethanol, ethanol control 59.3±6.9 landings), 3.0; in test [1] ([…] in ethanol, ethanol control 59.3±6.9 landings), 19.0. For the same compound, the “number of mosquitoes landing within 2 minutes on the warm body, air in the cage saturated with stimulus” value worked out at 17.0 in test [2] (0.0017 µg/L air, without substance 54.7±3.2); 9.0 in test [2] (0.017 µg/L air, without substance 54.7±3.2); 1.5 in test [2] (0.17 µg/L air, without substance 54.7±3.2); 3.5 in test [2] (1.7 µg/L air, without substance 54.7±3.2); 1.0 in test [2] (17 µg/L air, without substance 54.7±3.2). Further, the “decrease of the percentage of mosquito landing on the arm” value in test [3] (5 min post-application) is reported as 82±5.2%; in test [3] (1 h post-application), 78±2.6%; in test [3] (2 h post-application) it was 66±8.0%; in test [3] (3 h post-application), 61±6%; in test [3] (4 h post-application), 63±2%. Further, the pest or weed control at 1 µg/cm2, 1 µg/cm2 in test [4] turned out to be 14%. In addition, the pest or weed control at 5 µg/cm2, 5 µg/cm2 in test [4] was 44%. The pest or weed control at 25 µg/cm2, 25 µg/cm2 in test [4] stood at 73%.
